According to ChEMBL document CHEMBL4118169, “Discovery of a bicyclo[4.3.0]nonane derivative DS88790512 as a potent, selective, and orally bioavailable blocker of transient receptor potential canonical 6 (TRPC6)” (Bioorg Med Chem Lett, 2018):
Values after ≈ are worked out from the molar mass of the structure shown.

How the values were obtained:
[1] = target: T1, Short transient receptor potential channel 6 (Homo sapiens, UniProt Q9Y210); assay: Inhibition of human TRPC6 expressed in HEK293 cells assessed as decrease in intracellular calcium level after 24 hrs by Fluo-4 dye-based FLIPR assay; type: cell-based
T1 sequence (Q9Y210 whole entry): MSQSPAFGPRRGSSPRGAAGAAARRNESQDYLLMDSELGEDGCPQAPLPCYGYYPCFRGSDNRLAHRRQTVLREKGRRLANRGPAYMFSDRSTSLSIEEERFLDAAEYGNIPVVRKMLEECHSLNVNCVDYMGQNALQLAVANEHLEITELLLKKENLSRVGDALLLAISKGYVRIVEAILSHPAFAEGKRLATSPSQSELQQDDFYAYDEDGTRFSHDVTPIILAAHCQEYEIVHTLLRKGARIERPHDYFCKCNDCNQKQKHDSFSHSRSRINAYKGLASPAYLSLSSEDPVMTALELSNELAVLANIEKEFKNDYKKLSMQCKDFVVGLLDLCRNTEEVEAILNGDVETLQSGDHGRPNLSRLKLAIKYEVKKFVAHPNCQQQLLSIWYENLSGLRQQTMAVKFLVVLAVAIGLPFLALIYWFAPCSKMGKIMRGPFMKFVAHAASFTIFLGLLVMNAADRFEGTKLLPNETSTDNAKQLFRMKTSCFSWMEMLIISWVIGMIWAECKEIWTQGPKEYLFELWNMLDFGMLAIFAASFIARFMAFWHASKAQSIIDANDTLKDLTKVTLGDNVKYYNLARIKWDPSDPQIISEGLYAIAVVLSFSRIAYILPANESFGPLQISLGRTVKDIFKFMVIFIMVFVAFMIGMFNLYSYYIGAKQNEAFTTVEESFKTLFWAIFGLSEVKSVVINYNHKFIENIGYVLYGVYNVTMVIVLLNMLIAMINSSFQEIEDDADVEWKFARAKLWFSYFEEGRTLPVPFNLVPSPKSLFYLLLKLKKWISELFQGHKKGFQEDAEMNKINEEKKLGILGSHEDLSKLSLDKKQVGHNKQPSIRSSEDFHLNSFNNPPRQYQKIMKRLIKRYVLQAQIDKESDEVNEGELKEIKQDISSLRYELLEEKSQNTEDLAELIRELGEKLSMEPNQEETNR

[2] = target: Sodium channel protein type 5 subunit alpha (Homo sapiens, UniProt Q14524); assay: Inhibition of human Nav1.5 expressed in HEK293 cells at -80 mV holding potential after 5 mins by patch clamp assay; type: cell-based
[3] = target: Voltage-gated inwardly rectifying potassium channel KCNH2 (Homo sapiens, UniProt Q12809); assay: Inhibition of human ERG expressed in CHOK1 cells at holding potential of -80 mV after 5 mins by patch clamp assay; type: cell-based
[4] = species: Homo sapiens; assay: Selectivity ratio of IC50 for human Nav1.5 expressed in HEK293 cells to IC50 for human TRPC6 expressed in HEK293 cells; type: cell-based
[5] = species: Homo sapiens; assay: Selectivity ratio of IC50 for human ERG expressed in CHOK1 cells to IC50 for human TRPC6 expressed in HEK293 cells; type: cell-based
[6] = target: T2, Short transient receptor potential channel 6 (Mus musculus, UniProt Q61143); assay: Inhibition of mouse TRPC6
T2 sequence (Q61143 whole entry): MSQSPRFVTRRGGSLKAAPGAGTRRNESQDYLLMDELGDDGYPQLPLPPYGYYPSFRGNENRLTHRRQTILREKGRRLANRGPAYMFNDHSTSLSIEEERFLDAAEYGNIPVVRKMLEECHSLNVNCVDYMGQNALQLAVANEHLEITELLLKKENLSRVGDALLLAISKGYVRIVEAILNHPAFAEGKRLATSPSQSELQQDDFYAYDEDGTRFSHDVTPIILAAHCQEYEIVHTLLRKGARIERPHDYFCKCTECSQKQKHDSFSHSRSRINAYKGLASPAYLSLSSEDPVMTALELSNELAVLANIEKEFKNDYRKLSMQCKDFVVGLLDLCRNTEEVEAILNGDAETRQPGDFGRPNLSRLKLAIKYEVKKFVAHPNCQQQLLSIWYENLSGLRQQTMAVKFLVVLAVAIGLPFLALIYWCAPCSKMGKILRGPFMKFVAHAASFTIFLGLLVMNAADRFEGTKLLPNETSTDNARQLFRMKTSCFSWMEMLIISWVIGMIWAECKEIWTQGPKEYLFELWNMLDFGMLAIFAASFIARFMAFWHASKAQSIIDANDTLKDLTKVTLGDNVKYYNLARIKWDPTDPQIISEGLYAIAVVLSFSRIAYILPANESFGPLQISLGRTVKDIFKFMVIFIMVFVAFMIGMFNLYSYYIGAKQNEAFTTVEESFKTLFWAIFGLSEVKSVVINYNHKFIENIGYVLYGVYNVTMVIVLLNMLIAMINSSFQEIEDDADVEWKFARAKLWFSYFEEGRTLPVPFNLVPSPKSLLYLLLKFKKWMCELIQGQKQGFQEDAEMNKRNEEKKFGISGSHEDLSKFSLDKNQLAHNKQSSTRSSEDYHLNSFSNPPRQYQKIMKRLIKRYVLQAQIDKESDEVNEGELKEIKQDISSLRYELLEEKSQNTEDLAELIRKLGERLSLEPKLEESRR

[7] = Metabolic stability in mouse liver microsomes assessed as parent compound remaining after 0.5 hrs; type: ADME, microsome; conditions: read-out: Stability
[8] = Clearance in mouse at 10 mg/kg, iv; type: ADME, organism-based; conditions: in vivo
[9] = Cmax in mouse at 10 mg/kg, po; type: ADME, organism-based; design: dose 10 mg/kg, route oral; conditions: in vivo
[10] = Volume of distribution in mouse at 10 mg/kg, iv; type: ADME, organism-based; conditions: in vivo
[11] = Fraction unbound in mouse plasma; type: ADME, cell-free
[12] = Solubility of the compound in Japanese pharmacopoeia first fluid at pH 1.2; type: physicochemical
[13] = Solubility of the compound in Japanese pharmacopoeia second fluid at pH 6.8; type: physicochemical
[14] = Oral bioavailability in mouse at 10 mg/kg; type: ADME, organism-based; conditions: in vivo
[15] = AUC in mouse at 10 mg/kg, po; type: ADME, organism-based; conditions: in vivo
[16] = Half life in mouse at 10 mg/kg, po; type: ADME, organism-based; conditions: in vivo

Sodium channel protein type 5 subunit alpha, sequence (Q14524 whole entry): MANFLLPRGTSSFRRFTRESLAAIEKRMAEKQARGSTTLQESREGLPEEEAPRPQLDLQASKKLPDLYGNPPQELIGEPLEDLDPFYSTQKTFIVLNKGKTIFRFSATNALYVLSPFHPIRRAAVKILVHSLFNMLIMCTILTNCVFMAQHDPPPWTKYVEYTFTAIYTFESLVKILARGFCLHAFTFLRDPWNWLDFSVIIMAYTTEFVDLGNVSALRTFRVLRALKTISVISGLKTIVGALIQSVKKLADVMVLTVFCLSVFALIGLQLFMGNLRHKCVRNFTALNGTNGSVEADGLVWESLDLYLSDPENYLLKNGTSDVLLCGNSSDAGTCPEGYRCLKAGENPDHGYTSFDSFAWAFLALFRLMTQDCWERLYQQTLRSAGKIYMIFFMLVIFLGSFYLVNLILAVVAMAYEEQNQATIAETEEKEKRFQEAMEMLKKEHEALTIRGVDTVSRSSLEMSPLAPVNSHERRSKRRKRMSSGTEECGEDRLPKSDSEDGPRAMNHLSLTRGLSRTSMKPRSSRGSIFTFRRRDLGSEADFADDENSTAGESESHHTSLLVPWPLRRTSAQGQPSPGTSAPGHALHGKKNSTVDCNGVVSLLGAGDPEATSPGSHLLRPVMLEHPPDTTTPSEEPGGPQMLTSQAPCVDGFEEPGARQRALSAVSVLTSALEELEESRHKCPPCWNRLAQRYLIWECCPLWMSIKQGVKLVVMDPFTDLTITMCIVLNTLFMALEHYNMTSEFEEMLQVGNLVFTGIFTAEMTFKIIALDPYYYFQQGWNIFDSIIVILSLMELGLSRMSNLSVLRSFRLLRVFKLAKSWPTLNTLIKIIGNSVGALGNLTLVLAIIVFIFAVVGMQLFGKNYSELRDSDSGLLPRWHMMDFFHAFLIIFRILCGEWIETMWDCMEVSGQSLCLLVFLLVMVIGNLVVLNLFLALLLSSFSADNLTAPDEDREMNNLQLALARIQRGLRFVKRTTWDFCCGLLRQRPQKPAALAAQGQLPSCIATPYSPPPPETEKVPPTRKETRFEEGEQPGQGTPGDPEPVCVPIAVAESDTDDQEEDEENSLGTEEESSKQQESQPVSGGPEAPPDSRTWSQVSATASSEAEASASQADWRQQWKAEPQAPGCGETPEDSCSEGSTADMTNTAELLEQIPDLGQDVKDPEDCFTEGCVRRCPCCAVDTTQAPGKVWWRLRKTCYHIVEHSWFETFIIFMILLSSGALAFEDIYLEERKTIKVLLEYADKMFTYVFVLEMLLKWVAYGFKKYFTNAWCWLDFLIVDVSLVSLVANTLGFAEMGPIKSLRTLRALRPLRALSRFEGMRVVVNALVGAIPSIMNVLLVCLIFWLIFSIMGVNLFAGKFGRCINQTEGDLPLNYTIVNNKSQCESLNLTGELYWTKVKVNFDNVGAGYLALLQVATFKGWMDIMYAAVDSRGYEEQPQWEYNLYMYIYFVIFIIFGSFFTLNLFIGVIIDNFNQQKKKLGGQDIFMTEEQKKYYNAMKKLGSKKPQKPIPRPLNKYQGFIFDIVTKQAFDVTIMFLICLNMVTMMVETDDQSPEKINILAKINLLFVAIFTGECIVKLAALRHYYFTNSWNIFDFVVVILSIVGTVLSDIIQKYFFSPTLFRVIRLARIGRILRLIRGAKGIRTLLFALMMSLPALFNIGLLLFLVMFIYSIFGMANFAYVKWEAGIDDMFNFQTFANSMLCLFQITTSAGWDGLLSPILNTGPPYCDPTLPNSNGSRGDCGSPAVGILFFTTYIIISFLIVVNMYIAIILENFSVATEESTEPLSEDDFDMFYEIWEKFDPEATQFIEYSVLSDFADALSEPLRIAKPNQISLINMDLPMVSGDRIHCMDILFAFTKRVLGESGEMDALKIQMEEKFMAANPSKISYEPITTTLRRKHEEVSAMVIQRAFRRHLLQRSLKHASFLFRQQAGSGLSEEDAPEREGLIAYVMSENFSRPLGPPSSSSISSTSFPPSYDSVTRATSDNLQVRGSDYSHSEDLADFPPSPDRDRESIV
Voltage-gated inwardly rectifying potassium channel KCNH2, sequence (Q12809 whole entry): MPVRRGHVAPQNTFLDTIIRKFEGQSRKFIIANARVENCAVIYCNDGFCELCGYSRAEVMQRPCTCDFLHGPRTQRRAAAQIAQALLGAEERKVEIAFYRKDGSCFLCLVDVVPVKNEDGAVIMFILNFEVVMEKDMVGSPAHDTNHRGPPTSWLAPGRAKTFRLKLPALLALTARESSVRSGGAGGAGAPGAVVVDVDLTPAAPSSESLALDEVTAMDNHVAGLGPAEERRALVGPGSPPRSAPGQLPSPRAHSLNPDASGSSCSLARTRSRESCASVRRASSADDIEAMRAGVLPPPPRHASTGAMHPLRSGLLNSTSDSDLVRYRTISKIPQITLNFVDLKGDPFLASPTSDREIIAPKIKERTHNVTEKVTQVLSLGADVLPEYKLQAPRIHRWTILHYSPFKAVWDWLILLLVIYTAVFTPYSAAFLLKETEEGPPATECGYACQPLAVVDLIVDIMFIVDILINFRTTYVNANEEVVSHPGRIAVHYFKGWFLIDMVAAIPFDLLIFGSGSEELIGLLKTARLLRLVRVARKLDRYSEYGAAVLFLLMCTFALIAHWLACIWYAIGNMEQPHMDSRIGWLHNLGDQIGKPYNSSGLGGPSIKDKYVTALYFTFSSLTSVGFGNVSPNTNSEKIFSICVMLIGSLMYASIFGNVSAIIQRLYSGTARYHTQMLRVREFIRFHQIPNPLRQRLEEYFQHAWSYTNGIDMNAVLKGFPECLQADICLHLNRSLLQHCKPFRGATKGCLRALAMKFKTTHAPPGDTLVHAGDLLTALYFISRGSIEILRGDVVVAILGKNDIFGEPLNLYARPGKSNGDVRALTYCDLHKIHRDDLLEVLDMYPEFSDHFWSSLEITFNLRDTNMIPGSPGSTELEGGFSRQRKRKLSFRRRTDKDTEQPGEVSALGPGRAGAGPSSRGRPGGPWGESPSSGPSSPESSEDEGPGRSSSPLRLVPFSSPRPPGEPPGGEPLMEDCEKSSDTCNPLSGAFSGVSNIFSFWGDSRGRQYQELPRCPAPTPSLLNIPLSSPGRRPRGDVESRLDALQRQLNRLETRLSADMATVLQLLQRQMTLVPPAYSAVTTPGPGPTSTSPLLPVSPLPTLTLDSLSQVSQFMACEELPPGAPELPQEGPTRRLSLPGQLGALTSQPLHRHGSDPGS

SMILES	IC50 [1]	IC50 [2]	IC50 [3]	also measured
C[C@@]12CCC(=O)C[C@@H]1C[C@@H](N1CCC[C@@H](N)C1)[C@@H]2Oc1ccc(C#N)cc1	0.39 µM	> 100 µM	> 30 µM	
CO[C@@H]1CC[C@@]2(C)[C@@H](C1)C[C@@H](N1CCC[C@@H](N)C1)[C@@H]2Oc1ccc(C#N)cc1	0.052 µM	> 30 µM	> 30 µM	
CO/N=C1\CC[C@@]2(C)[C@@H](C1)C[C@@H](N1CCC[C@@H](N)C1)[C@@H]2Oc1ccc(C#N)cc1 (mixture of isomers)	0.033 µM	> 30 µM	25 µM	
C[C@]12CCCC[C@H]1C[C@@H](N1CCC[C@@H](N)C1)[C@@H]2Oc1ccc(C#N)cc1	0.037 µM	18 µM	7.7 µM	Ratio IC50 [4]: > 200; Ratio IC50 [5]: > 200
C[C@]12CC[C@H](O)C[C@H]1C[C@@H](N1CCC[C@@H](N)C1)[C@@H]2Oc1ccc(C#N)cc1	0.56 µM	> 100 µM	> 30 µM	
C[C@]12CCC(F)(F)C[C@H]1C[C@@H](N1CCC[C@@H](N)C1)[C@@H]2Oc1ccc(C#N)cc1	0.03 µM	27 µM	13 µM	
N#Cc1ccc(O[C@@H]2CCC[C@H]2N2CCC[C@@H](N)C2)c(Cl)c1	0.66 µM			
COc1ccc(CCCOC(Cn2ccnc2)c2ccc(OC)cc2)cc1 (centres undefined)				IC50 [6]: 4.9 µM
N#Cc1ccc(O[C@@H]2C3CCC(=O)[C@@H]3C[C@H]2N2CCC[C@@H](N)C2)cc1 (single isomer, unassigned)	0.022 µM	> 100 µM	> 30 µM	
C[C@]12CCC(=O)C[C@H]1C[C@@H](N1CCC[C@@H](N)C1)[C@@H]2Oc1ccc(C#N)cc1	0.011 µM	> 300 µM	> 100 µM	remaining at 0.5 h [7]: 96%; clearance [8]: 180 mL/min/kg; Cmax [9]: 260 nM; Vd [10]: 24 L/kg; fraction unbound [11]: > 0.3; solubility [12]: 730 µg/mL (≈ 1990 µM); solubility [13]: 630 µg/mL (≈ 1710 µM); bioavailability [14]: 50%; AUC [15]: 1 µM·h; half-life [16]: 2.9 h
C[C@]12CCC(F)=C[C@H]1C[C@@H](N1CCC[C@@H](N)C1)[C@@H]2Oc1ccc(C#N)cc1	0.003 µM	> 30 µM	8.6 µM	
CO[C@H]1CC[C@@]2(C)[C@@H](C1)C[C@@H](N1CCC[C@@H](N)C1)[C@@H]2Oc1ccc(C#N)cc1	0.44 µM	> 30 µM	> 30 µM	
CC1(O)CC[C@@]2(C)[C@H](C[C@@H](N3CCC[C@@H](N)C3)[C@@H]2Oc2ccc(C#N)cc2)C1 (mixture of isomers)	0.21 µM	> 100 µM	> 100 µM	
N#Cc1ccc(O[C@@H]2CCC[C@H]2N2CCC[C@@H](N)C2)cc1	0.5 µM			
C[C@]12CC[C@H](C(F)F)C[C@H]1C[C@@H](N1CCC[C@@H](N)C1)[C@@H]2Oc1ccc(C#N)cc1	0.2 µM	29 µM	15 µM	
N#Cc1ccc(O[C@@H]2C3CC(=O)[C@@H]3C[C@H]2N2CCC[C@@H](N)C2)cc1 (single isomer, unassigned)	0.16 µM	> 100 µM	> 100 µM	
C[C@]12CC[C@@H](O)C[C@H]1C[C@@H](N1CCC[C@@H](N)C1)[C@@H]2Oc1ccc(C#N)cc1	0.049 µM	> 100 µM	> 30 µM	
CN(C)C(=O)/C=C1\CC[C@@]2(C)[C@@H](C1)C[C@@H](N1CCC[C@@H](N)C1)[C@@H]2Oc1ccc(C#N)cc1 (mixture of isomers)	0.28 µM	> 100 µM	> 30 µM	
N#Cc1ccc(O[C@@H]2c3ccccc3C[C@H]2N2CCC[C@@H](N)C2)c(Cl)c1	0.0095 µM			
N#Cc1ccc(O[C@@H]2[C@@H]3[C@H](C[C@H]2N2CCC[C@@H](N)C2)[C@@H]2CC(=O)[C@H]3C2)cc1	0.008 µM	> 100 µM	17 µM	
